Assays:
Type in all cases: in vivo, human
[1] = test system: patients with gout and a history of major cardiovascular diseases; assay: Clinical trial: proportion of patients reaching serum uric acid concentration targets; details: febuxostat group vs allopurinol group
Protocol: A multicenter, randomized, double-blind non-inferiority trial was performed. The details of the clinical trial design have been published previously. An independent data and safety monitoring committee with access to unblinded data monitored the clinical trial. The statistical analysis for the data and the safety monitoring committee was performed by an independent statistical group (WebbWrites). […] The patients were regarded as having a history of major cardiovascular diseases, if they had myocardial infarction, hospitalization for unstable angina, stroke, hospitalization for transient ischemic attack, peripheral vascular disease, or diabetes mellitus symptoms. All participants provided a prior informed consent form. The dose of allopurinol was modified according to a kidney function. […] The dose of febuxostat was not modified according to the kidney function. The patients who were randomly assigned to receive febuxostat initially received 40 mg once a daily, and continued to receive the same dosage if the serum uric acid concentration was less than 6.0 mg per deciliter after 2 weeks of the treatment. […] During the period, the administration of a double-blind and double-dummy trial medications was guided by an interactive voice-response system which was a procedure to prevent unblinding for the patients whose dose was not adjusted. After completing dose adjustment, the urate level was concealed from the investigators, and the treatment was managed throughout the trial using the interactive voice-response system. […] The patients with reduced kidney function or, the patients aged 65 years or older at randomization were visited at 9 and 15 months for monitoring the serum chemical profile. If the patient agreed to be monitored, but would not return for study visit, telephone contact was made, but such method was not preferred or recommended.

[2] = test system: patients with gout and a history of major cardiovascular diseases; assay: Clinical trial analysis: risk of major cardiovascular events by serum uric acid concentration (<6 vs >=6) per patient group; details: for increase in risk of occurrence of major cardiovascular events (hazard ratio): serum uric acid maintained at or above 6 vs below 6
Protocol: (§1) A multicenter, randomized, double-blind non-inferiority trial was performed. The details of the clinical trial design have been published previously. An independent data and safety monitoring committee with access to unblinded data monitored the clinical trial. The statistical analysis for the data and the safety monitoring committee was performed by an independent statistical group (WebbWrites).
(§2) The patients were regarded as having a history of major cardiovascular diseases, if they had myocardial infarction, hospitalization for unstable angina, stroke, hospitalization for transient ischemic attack, peripheral vascular disease, or diabetes mellitus symptoms. All participants provided a prior informed consent form.
The patients were randomly assigned so that they received febuxostat or allopurinol administered once a day in a double-blind manner. The randomization was stratified according to the estimated creatinine clearance at baseline (patient group having an estimated creatinine clearance ≥60 ml per minute vs patient group having an estimated creatinine clearance ≥30 and <60 ml per minute).
The dose of allopurinol was modified according to a kidney function. The patients with the estimated creatinine clearance 60 ml or more per minute i) initially received allopurinol at a dose of 300 mg once a day, and the dose was increased in 100 mg increments monthly until the patient had the serum uric acid concentration of less than 6.0 mg per deciliter or the dosage of allopurinol was 600 mg once a day. The patient having the estimated creatinine clearance of 30 ml or more and less than 60 ml per minute initially received 200 mg of allopurinol, and then the dose was increased in 100 mg increments until the patient either had the serum uric acid concentration of less than 6.0 mg per deciliter or was receiving the allopurinol dose of 400 mg once daily.
The dose of febuxostat was not modified according to the kidney function. The patients who were randomly assigned to receive febuxostat initially received 40 mg once a daily, and continued to receive the same dosage if the serum uric acid concentration was less than 6.0 mg per deciliter after 2 weeks of the treatment. If the serum uric acid concentration was higher than 6.0 mg per deciliter at 2nd week visit, the dose of febuxostat was increased to 80 mg once daily for the remainder of the trial.

[3] = test system: patients with gout and a history of major cardiovascular diseases; assay: Clinical trial: rate of gout flare; details: overall
Protocol: as §1, §2
All patients received prophylaxis for the first 6 months of the randomly assigned treatment.

Cc1nc(-c2ccc(OCC(C)C)c(C#N)c2)sc1C(=O)O [febuxostat] was tested, and the “proportion of patients with maintenance of serum uric acid concentration at less than 6.0 mg per deciliter” value ([1]; after 2nd week, at most times, difference not large) was “higher proportion”, the “proportion of patients with serum uric acid concentration of less than 6.0 mg per deciliter” value ([1]; at the 2nd week) was “higher” and the “proportion of patients with serum uric acid concentration of less than 5.0 mg per deciliter” value ([1]; entire trial) was “larger proportion”. The “effect on cardiovascular disease when serum uric acid concentration is maintained below 6” value ([2]; febuxostat: aged 65 or older, glucose 126 mg/dl or more, LDL-cholesterol 100 mg/dl or less, DBP 80 or lower, or stroke or peripheral vascular disease history) was “prevented or treated” and the “rate of gout flare” value [3] was 0.68 per patient-year.

In the case of O=c1ncnc2[nH][nH]cc1-2 [allopurinol], the “effect on cardiovascular disease when serum uric acid concentration is maintained below 6” value ([2]; allopurinol: aged 65 years or older or BMI 30 kg/m^2 or less) is reported as “effectively prevented or treated”, the “increase in risk of occurrence of major cardiovascular events (hazard ratio)” value ([2]; patient group aged 65 years or older) is reported as “about 1.68 times” and the “increase in risk of occurrence of major cardiovascular events (hazard ratio)” value ([2]; patient group with BMI of 30 kg/m^2 or less) is reported as “about 1.78 times”. For the same compound, the “rate of gout flare” value [3] was 0.63 per patient-year.
